# Laboratory results from US20260184693A1, “INHIBITORS OF SOLUTE CARRIER FAMILY 6A MEMBER 19 (SLC6A19) AND METHODS OF USE THEREOF” (Maze Therapeutics, Inc., priority 2022, published 2026).
# How the values were obtained:
# [1] = molecular target: T1, human SLC6A19 (Homo sapiens, UniProt Q695T7); test: Example B-1: L-[3H]leucine uptake, liquid scintillation, in CHO cells with doxycycline-inducible expression of human SLC6A19 and TMEM27; format: cell-based; conditions: read-out: SLC6A19_Radioligand Uptake Assay IC50
# T1 construct: expressed in transfected cells
# T1 sequence (Q695T7 1-634): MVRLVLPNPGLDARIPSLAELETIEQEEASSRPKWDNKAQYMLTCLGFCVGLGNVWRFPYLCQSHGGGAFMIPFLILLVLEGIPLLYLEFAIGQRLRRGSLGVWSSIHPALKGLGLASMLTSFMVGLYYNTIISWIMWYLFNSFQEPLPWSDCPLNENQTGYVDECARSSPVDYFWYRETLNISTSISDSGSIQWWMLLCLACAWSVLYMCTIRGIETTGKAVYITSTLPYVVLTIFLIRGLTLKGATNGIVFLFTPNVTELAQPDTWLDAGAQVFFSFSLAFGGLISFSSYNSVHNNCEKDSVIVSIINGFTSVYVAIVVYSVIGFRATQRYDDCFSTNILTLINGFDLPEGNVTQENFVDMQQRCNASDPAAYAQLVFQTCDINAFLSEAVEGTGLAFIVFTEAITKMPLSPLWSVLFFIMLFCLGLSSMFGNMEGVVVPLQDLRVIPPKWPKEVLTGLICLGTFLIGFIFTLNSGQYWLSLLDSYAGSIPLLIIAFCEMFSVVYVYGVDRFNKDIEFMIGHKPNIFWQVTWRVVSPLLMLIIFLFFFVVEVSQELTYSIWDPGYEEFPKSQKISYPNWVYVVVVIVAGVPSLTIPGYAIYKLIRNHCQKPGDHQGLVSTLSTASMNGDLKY
# T1 sequence (Q9HBJ8 15-222 partner): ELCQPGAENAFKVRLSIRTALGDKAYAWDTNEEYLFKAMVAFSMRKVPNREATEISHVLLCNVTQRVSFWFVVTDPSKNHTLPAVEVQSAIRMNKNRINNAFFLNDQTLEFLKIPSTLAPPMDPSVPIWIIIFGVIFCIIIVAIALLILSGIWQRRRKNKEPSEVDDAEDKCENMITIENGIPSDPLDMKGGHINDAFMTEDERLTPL
# Method: CHO cells with doxycycline-inducible expression of human SLC6A19 and TMEM27 were maintained in T150 cell culture treated flasks using cell culture media, which consisted of 1×DMEM/F12 (Gibco, 11330057), 10% Tet System-Approved FBS (Gibco, A4736401), 100 U/mL Penicillin-Streptomycin (Gibco, 15140122), 1×GlutaMAX™ Supplement (Gibco, 35050061), 1 mM Sodium Pyruvate (Gibco, 11360070), 1.1 mg/mL Sodium Bicarbonate (Gibco, 25080094), 5 μg/mL Blasticidin (InvivoGen, ant-bl-1), 150 μg/mL Hygromycin B Gold (InvivoGen, ant-hg-5), and 500 μg/mL G418 (Sigma-Aldrich, G8168-100 mL). In preparation for the assay, this media was aspirated and 5 mL of TryμLE™ Express Enzyme (Gibco, 12605010) was added to each flask to initiate cell dissociation. The flasks were then incubated (humidified, 37° C. with 5% CO2) for 2 minutes. After incubation, 10 mL of pre-warmed cell culture media was added to each flask. The cell suspension was collected and centrifuged for 5 minutes at 200xg.
# The supernatant was aspirated and the pellet was resuspended in 5 mL pre-warmed cell culture media. The resuspended cells were counted using the Countess Cell Counting Chamber (Invitrogen) and the cell concentration of the suspension was readjusted to 1 million live cells/mL using pre-warmed cell culture media. 25 uL/well (25,000 cells/well) of readjusted cell suspension was dispensed into Poly-D-Lysine 384-well white/clear plates (Corning, 354660) using a MultiDrop Combi (Thermo Electron Corp). To induce expression of Human SLC6A19 and TMEM27, 25 uL/well of cell culture media containing 2 μg/mL doxycycline was added to the first 23 columns of each plate resulting in a final concentration of […] doxycycline. 25 μL/well of cell culture media was added to the last column of each plate, to act as negative control wells for Human SLC6A19 and TMEM27 expression. Assay plates were then incubated (humidified, 37° C. with 5% CO2) for 18 hours. After incubation, the media was aspirated and the wells were washed 4 times with pre-warmed HBSS (Sigma-Aldrich, H8264-1L) using an Apricot S-Pipette S2 (Apricot Designs), such that 5 uL/well HBSS was remaining at the end of each wash. […] At this step, the final in-well DMSO concentration in the assay plate is 0.5%. All compounds were plated in a duplicate 8-point dilution series that consisted of 3-fold dilutions. […] Afterwards, 15 uL/well of 3.2 mM hot:cold leucine solution (1:15000 ratio of L-[3,4,5-3H(N)] Leucine (Perkin Elmer, NET460001MC) to L-Leucine (Sigma-Aldrich, L8912-25G) diluted with HBSS (Sigma-Aldrich, H8264-1L)) was added using the Viaflo 384 (Integra), for a final concentration of 1.6 mM hot:cold leucine solution. The plates were then incubated (humidified, 37° C. with 5% CO2) for 20 minutes to conduct the uptake reaction. Immediately after the incubation, the plates were washed 4 times with HBSS (Sigma-Aldrich, H8264-1L) using the ELx405 Microplate Washer (Biotek) to terminate the uptake reaction. After the washes, 50 uL/well Ultima Gold Scintillation Cocktail (Perkin Elmer, 6013326) was added to each well using the Viaflo 384 (Integra). The plates were then incubated (humidified, 37° C. with 5% CO2) on a plate shaker at 200 rpm for 2 hours. After incubation, the plates were removed from the shaker and kept at room temperature for 15 minutes.
# Liquid scintillation analysis was performed using the MicroBeta2 Microplate Counter (Perkin Elmer). Activity (%) was derived by normalizing the average of positive control compound treated wells to 0% and the average of DMSO (negative control) wells to 100%. Collaborative Drug Discovery software was used for graphing data.
# [2] = molecular target: T1, human SLC6A19; test: Example B2: 13C6,15N-isoleucine uptake, RapidFire mass spectrometry, in CHO cells with doxycycline-inducible expression of human SLC6A19 and TMEM27; format: cell-based; conditions: read-out: SLC6A19_RapidFire Uptake Assay IC50
# How it was run: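 Labelled isoleucine (13C6,15N; 2 mM added) was given 20 min at 37 °C, following a 20-min compound pre-treatment (10-point 2-fold series, duplicate). Cells were doxycycline-induced CHO co-expressing human SLC6A19 and TMEM27. Intracellular label was quantified by RapidFire-MS peak areas against a 13C-leucine standard.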
IC50 [1],IC50 [2],Compound
1320 nM,–,"CN(C(=O)NCc1cc2cc(Cl)ccc2[nH]1)[C@@H]1CCCN(C(=O)c2cc(F)ccn2)C1 [Compound 111, (R)-3-((5-chloro-1H-indol-2-yl)methyl)-1-(1-(4-fluoropicolinoyl)piperidin-3-yl)-1-methylurea]"
367 nM,–,"CN(C(=O)NCc1cc2cc(Cl)ccc2[nH]1)[C@@H]1CCCN(C(=O)C2CCOC2)C1 (stereo partly drawn) [Compound 112, 3-((5-chloro-1H-indol-2-yl)methyl)-1-methyl-1-((3R)-1-(tetrahydrofuran-3-carbonyl)piperidin-3-yl)urea]"
494 nM,–,"CN(C(=O)NCc1cc2cc(Cl)ccc2[nH]1)[C@@H]1CCCN(C(=O)c2nn(C)cc2F)C1 [Compound 113, (R)-3-((5-chloro-1H-indol-2-yl)methyl)-1-(1-(4-fluoro-1-methyl-1H-pyrazole-3-carbonyl)piperidin-3-yl)-1-methylurea]"
847 nM,–,"CN(C(=O)NCc1cc2cc(Cl)ccc2[nH]1)[C@@H]1CCCN(C(=O)c2ccc(F)cn2)C1 [Compound 114, (R)-3-((5-chloro-1H-indol-2-yl)methyl)-1-(1-(5-fluoropicolinoyl)piperidin-3-yl)-1-methylurea]"
688 nM,–,"CN(C(=O)NCc1cc2cc(Cl)ccc2[nH]1)[C@@H]1CCCN(C(=O)c2cc(F)n(C)n2)C1 [Compound 115, (R)-3-((5-chloro-1H-indol-2-yl)methyl)-1-(1-(5-fluoro-1-methyl-1H-pyrazole-3-carbonyl)piperidin-3-yl)-1-methylurea]"
–,2790 nM,"CN(C(=O)NCc1cc2cc(Cl)ccc2[nH]1)[C@@H]1CCCN(C(=O)C(C)(C)O)C1 [Compound 180, (R)-3-((5-chloro-1H-indol-2-yl)methyl)-1-(1-(2-hydroxy-2-methylpropanoyl)piperidin-3-yl)-1-methylurea]"
–,795 nM,"CN(C(=O)NCc1cc2cc(Cl)ccc2[nH]1)[C@@H]1CCCN(C(=O)N2CCCC2)C1 [Compound 181, (R)-3-((5-chloro-1H-indol-2-yl)methyl)-1-methyl-1-(1-(pyrrolidine-1-carbonyl)piperidin-3-yl)urea]"
–,852 nM,"C[C@H](O)C(=O)N1CCC[C@@H](N(C)C(=O)NCc2cc3cc(Cl)ccc3[nH]2)C1 [Compound 183, 3-((5-chloro-1H-indol-2-yl)methyl)-1-((R)-1-((S)-2-hydroxypropanoyl)piperidin-3-yl)-1-methylurea]"
–,4400 nM,"CC(=O)N1CCC(C(=O)N2CCC[C@@H](N(C)C(=O)NCc3cc4cc(Cl)ccc4[nH]3)C2)C1 (stereo partly drawn) [Compound 185, 1-((3R)-1-(1-acetylpyrrolidine-3-carbonyl)piperidin-3-yl)-3-((5-chloro-1H-indol-2-yl)methyl)-1-methylurea]"
–,5600 nM,"C[C@@H](O)C(=O)N1CCC[C@@H](N(C)C(=O)NCc2cc3cc(Cl)ccc3[nH]2)C1 [Compound 186, 3-((5-chloro-1H-indol-2-yl)methyl)-1-((R)-1-((R)-2-hydroxypropanoyl)piperidin-3-yl)-1-methylurea]"

# More lines, now with the values behind:
Compound,IC50 [1],IC50 [2]
"CC(=O)N1C[C@H](N(C)C(=O)NCc2cc3cc(Cl)ccc3[nH]2)CC[C@@H]1C (single isomer, unassigned) [Compound 192, 1-((3R,6S or 3S,6R)-1-acetyl-6-methylpiperidin-3-yl)-3-((5-chloro-1H-indol-2-yl)methyl)-1-methylurea]",558 nM,–
"CC(=O)N1CCC[C@@H](N(C)C(=O)NCc2cc3cc(Cl)c(C#N)cc3[nH]2)C1 [Compound 182, (R)-1-(1-acetylpiperidin-3-yl)-3-((5-chloro-6-cyano-1H-indol-2-yl)methyl)-1-methylurea]",–,2930 nM
"CC(=O)N1CCC[C@@H](N(C)C(=O)NCc2cc3[nH]ccc3cc2F)C1 [Compound 184, (R)-1-(1-acetylpiperidin-3-yl)-3-((5-fluoro-1H-indol-6-yl)methyl)-1-methylurea]",–,3970 nM
"CC(=O)N1CCC[C@@H](N(C)C(=O)NCc2ccc3c(C)c[nH]c3c2)C1 [Compound 223, (R)-1-(1-acetylpiperidin-3-yl)-1-methyl-3-((3-methyl-1H-indol-6-yl)methyl)urea]",–,4670 nM
"COc1ccc2[nH]c(CNC(=O)N(C)[C@@H]3CCCN(C(C)=O)C3)cc2c1 [Compound 224, (R)-1-(1-acetylpiperidin-3-yl)-3-((5-methoxy-1H-indol-2-yl)methyl)-1-methylurea]",–,1650 nM
"CC(=O)N1CCC[C@@H](N(C)C(=O)NCc2ccc3c(C)c(C)[nH]c3c2)C1 [Compound 225, (R)-1-(1-acetylpiperidin-3-yl)-3-((2,3-dimethyl-1H-indol-6-yl)methyl)-1-methylurea]",–,2960 nM
"CC(=O)N1CCC[C@@H](N(C)C(=O)NCc2cc3cc(Cl)c(C)cc3[nH]2)C1 [Compound 226, (R)-1-(1-acetylpiperidin-3-yl)-3-((5-chloro-6-methyl-1H-indol-2-yl)methyl)-1-methylurea]",–,209 nM
"CC(=O)N1CCC[C@@H](N(C)C(=O)NCc2cc3cc(Cl)cc(C)c3[nH]2)C1 [Compound 227, (R)-1-(1-acetylpiperidin-3-yl)-3-((5-chloro-7-methyl-1H-indol-2-yl)methyl)-1-methylurea]",–,327 nM
"CC(=O)N1CCC[C@@H](N(C)C(=O)NCc2cc3cc(C#N)ccc3[nH]2)C1 [Compound 228, (R)-1-(1-acetylpiperidin-3-yl)-3-((5-cyano-1H-indol-2-yl)methyl)-1-methylurea]",–,2210 nM
"CC(=O)N1CCC[C@@H](N(C)C(=O)NCc2[nH]c3ccc(Cl)cc3c2C)C1 [Compound 229, (R)-1-(1-acetylpiperidin-3-yl)-3-((5-chloro-3-methyl-1H-indol-2-yl)methyl)-1-methylurea]",–,108 nM
"CC(=O)N1CCC[C@@H](N(C)C(=O)NCc2cc3cc(Cl)cc(CO)c3[nH]2)C1 [Compound 230, (R)-1-(1-acetylpiperidin-3-yl)-3-((5-chloro-7-(hydroxymethyl)-1H-indol-2-yl)methyl)-1-methylurea]",–,12800 nM
"CC(=O)N1CCC[C@@H](N(C)C(=O)NCc2cc3cc(Cl)cc(O)c3[nH]2)C1 [Compound 231, (R)-1-(1-acetylpiperidin-3-yl)-3-((5-chloro-7-hydroxy-1H-indol-2-yl)methyl)-1-methylurea]",–,1060 nM
